Assay results reported in ChEMBL document CHEMBL1153759, “Surface plasmon resonance-based detection of ladder-shaped polyethers by inhibition detection method” (Bioorg Med Chem Lett, 2009).
Calls of active or inactive are those of the source. The calls are words filed in the database; no cut-off is given here.

What was measured:
[1] = (§1) Inhibition of bovine spleen PDE2 by surface plasmon resonance assay; design: species or system Bos taurus
[2] = target: 3',5'-cyclic-AMP phosphodiesterase 4D (Homo sapiens, UniProt Q08499); test: Binding affinity to recombinant PDE4D by surface plasmon resonance assay
Chain of 3',5'-cyclic-AMP phosphodiesterase 4D (Q08499 whole entry): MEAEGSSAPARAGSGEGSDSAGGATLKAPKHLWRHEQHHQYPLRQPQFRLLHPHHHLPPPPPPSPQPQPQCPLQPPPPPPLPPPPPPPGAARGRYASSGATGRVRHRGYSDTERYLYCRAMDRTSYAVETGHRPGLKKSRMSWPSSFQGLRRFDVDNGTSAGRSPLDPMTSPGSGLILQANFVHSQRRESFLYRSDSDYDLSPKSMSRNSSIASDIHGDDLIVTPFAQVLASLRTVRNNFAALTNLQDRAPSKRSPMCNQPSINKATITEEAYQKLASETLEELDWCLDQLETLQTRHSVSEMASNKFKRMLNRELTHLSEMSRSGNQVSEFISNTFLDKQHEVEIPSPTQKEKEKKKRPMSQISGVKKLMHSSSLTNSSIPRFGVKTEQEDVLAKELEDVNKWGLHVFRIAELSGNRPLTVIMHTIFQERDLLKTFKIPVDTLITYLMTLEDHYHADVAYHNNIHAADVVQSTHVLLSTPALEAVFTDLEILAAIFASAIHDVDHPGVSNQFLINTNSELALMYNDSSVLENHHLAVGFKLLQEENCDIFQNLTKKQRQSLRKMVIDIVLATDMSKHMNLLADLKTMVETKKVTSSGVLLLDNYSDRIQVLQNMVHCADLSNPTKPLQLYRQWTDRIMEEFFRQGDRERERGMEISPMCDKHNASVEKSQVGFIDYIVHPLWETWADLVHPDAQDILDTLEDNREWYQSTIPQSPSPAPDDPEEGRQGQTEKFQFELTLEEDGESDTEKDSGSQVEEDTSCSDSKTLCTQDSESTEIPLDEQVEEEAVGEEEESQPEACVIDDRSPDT

[3] = species: Bos taurus; test: Inhibition of bovine spleen PDE2 up to 100 uM after 20 to 40 seconds by surface plasmon resonance assay
[4] = species: Bos taurus; test: as §1
[5] = Binding affinity to bovine spleen PDE2 by surface plasmon resonance assay; design: species or system Bos taurus

SMILES | IC50 [1] [µM] | Kd [2] [µM] | inhibition [3] | inhibition [4] | Kd [5] [µM]
C[C@@]12CC[C@@H]3O[C@H](CO)[C@@H](O)C[C@H]3O[C@H]1C[C@H]1O[C@@H](CCOCc3ccccc3)[C@H](OCc3ccccc3)C[C@@H]1O2 | 13 | 11 |  |  | 
C[C@@]12CC[C@@H]3O[C@H](CO)[C@@H](O)C[C@H]3O[C@H]1C[C@H]1O[C@@H](CCO)[C@H](O)C[C@@H]1O2 | > 100 | 29 |  |  | 
OC[C@H]1O[C@@H](CCOCc2ccccc2)[C@H](OCc2ccccc2)C[C@@H]1O | > 100 | 80 |  |  | 
C[C@@]12CC[C@@H]3O[C@@H]4C[C@@H]5O[C@@H]6C[C@H](O)[C@@H](CO)O[C@H]6CC[C@@]5(C)O[C@H]4C[C@H]3O[C@H]1C[C@H]1O[C@@H](CCOCc3ccccc3)[C@H](OCc3ccccc3)C[C@@H]1O2 | 9.2 | 4.8 |  |  | 
C=C(C=O)C[C@@H]1C[C@H](O)[C@]2(C)O[C@@H]3C[C@@H]4O[C@@H]5C[C@]6(C)O[C@]7(C)CC[C@@H]8O[C@@H]9C[C@]%10(C)O[C@@H]%11C(C)=CC(=O)O[C@H]%11C[C@H]%10O[C@H]9C[C@@H](C)[C@H]8O[C@H]7C[C@H]6O[C@H]5C/C=C\[C@H]4O[C@H]3C[C@H]2O1 [BREVETOXIN] | 1.8 | 3.8 | Active |  | 
C=CCC(=C)/C=C/[C@@](C)(O)[C@H]1O[C@@H]2C[C@@H]3O[C@@H]4C[C@@H]5O[C@@H]6C[C@@H]7O[C@@H]8C[C@@H]9O[C@@H]%10C[C@@H]%11O[C@](C)(CCO)[C@@H](O)C[C@H]%11O[C@H]%10C[C@H]9O[C@H]8CC[C@@]7(C)O[C@@]6(C)CC[C@H](C)[C@H]5O[C@H]4C[C@@]3(C)O[C@H]2CC1=C [DESULFATED YESSOTOXIN] | 1.7 | 2 | Active | Dose-dependent effect | 
CC[C@@H](C(=O)[C@@H](C)[C@@H](O)[C@H](C)[C@@H]1O[C@@H]([C@@H](CC)C(=O)O)CC[C@@H]1C)[C@H]1O[C@]2(C=C[C@@H](O)[C@]3(CC[C@@](C)([C@H]4CC[C@](O)(CC)[C@H](C)O4)O3)O2)[C@H](C)C[C@@H]1C [SALINOMYCIN SODIUM] | > 100 |  |  |  | 
C=CCC(=C)/C=C/[C@@](C)(O)[C@H]1O[C@@H]2C[C@@H]3O[C@@H]4C[C@@H]5O[C@@H]6C[C@@H]7O[C@@H]8C[C@@H]9O[C@@H]%10C[C@@H]%11O[C@](C)(CCOS(=O)(=O)O)[C@@H](OS(=O)(=O)O)C[C@H]%11O[C@H]%10C[C@H]9O[C@H]8CC[C@@]7(C)O[C@@]6(C)CC[C@H](C)[C@H]5O[C@H]4C[C@@]3(C)O[C@H]2CC1=C [YESSOTOXIN] | 3 | 1 | Active |  | 2.2
